Test results from patent US20250351832A1, “PHYTOCHEMICALS AS BIOPESTICIDES AND BIOSTIMULANTS” (KAY BEE BIO ORGANICS PVT. LTD., priority 2024, published 2025).
Like-named read-outs stand apart in the source and are kept apart here.

Experiments:
[1] = test system: Helicoverpa armigera; conditions: Helicoverpa armigera on okra fruits, dose 1 ml/gm/lit., 72 Hrs.
[2] = test system: Mealy Bug; conditions: Mealy Bug on cotton leaves, dose 1 ml/gm/lit., 48 Hrs.
[3] = test system: Mite; conditions: mite on okra plants, green house, dose 1 ml/gm/lit. spray
[4] = test system: Mealy Bug; conditions: mealy bug on cotton plants, green house, dose 1 ml/gm/lit. spray
[5] = test system: Alternaria alternata; test: In vitro poisoned food technique against fungus (Ex. 20); assay type: cell-based; conditions: poisoned food technique, PDA medium, dose 1 ml/gm/lit., after seven days
[6] = test system: Thrips; test: whole plant or invertebrate; conditions: in Gossypium hirsutum, 48 h
[7] = test system: Spodoptera litura; conditions: Spodoptera litura 3rd instar on cabbage plants, dose 1 ml/gm/lit. spray
[8] = test system: Thrips; conditions: Thrips on cotton leaves; dose 1 ml/gm/lit.; 10 insects/treatment; 48 hrs after application
[9] = test system: Aphid; test: whole plant or invertebrate; conditions: 48 h
[10] = test system: Mite; conditions: Dose 1 ml/gm/lit.
[11] = test system: tomato seedlings; test: Response of tomato plants, greenhouse growth (Ex. 30); assay type: in vivo; conditions: tomato seedlings, dose 1 ml/gm/lit
[12] = test system: Thrips; conditions: thrips on cotton plants, greenhouse, dose 1 ml/gm/lit. spray
[13] = test system: Alternaria alternata; test: Alternaria leaf spot/blight on inoculated tomato plants (Ex. 28); assay type: in vivo; conditions: tomato plants, Alternaria alternata; after 7 days; dose 1 ml/gm/lit
[14] = test system: chili seedlings; test: Response of chili plants, greenhouse growth (Ex. 31); assay type: in vivo; conditions: chili seedlings, dose 1 ml/gm/lit
[15] = test system: Helicoverpa armigera; conditions: Helicoverpa armigera 3rd instar on chickpea plants, dose 1 ml/gm/lit. spray
[16] = test system: Spodoptera litura; conditions: Spodoptera litura on castor leaves; dose 1 ml/gm/lit.; 10 insects/treatment; 72 hrs after application
[17] = test system: Aphid; conditions: Dose 1 ml/gm/lit.
[18] = test system: Aphid; conditions: Aphids on cotton plants, green house; dose 1 ml/gm/lit.; 10 insects/plant, 10 plants/treatment; 48 hrs
[19] = test system: Spodoptera litura; test: whole plant or invertebrate; conditions: 72 h
[20] = 10 insects/treatment, 4 replications
[21] = 48 hrs, corrected for water control
[22] = read-out: % Corrected Mortality at 48 Hrs.
[23] = read-out: % Mortality at 48 Hrs.
[24] = 72 hrs, corrected for water control

C=CCc1ccc(OC)cc1 [Methyl chavicol]
Total No. of dead insect at 72 Hrs. [1, 20]: 6.25
% Mortality at 72 Hrs. [1]: 62.50%
% Corrected Mortality at 72 Hrs. ([1]; corrected for water control): 62.50%
Total No. of dead insect at 48 Hrs. [2, 20]: 6.25
% Mortality at 48 Hrs. [2]: 62.50%
% Corrected Mortality at 48 Hrs. ([2]; corrected for water control): 60.53%
% Mortality at 48 Hrs. ([3]; 48 hrs after application): 42.50%
Total No. of dead insect at 48 Hrs. ([3]; 48 hrs after application): 42.50
% Corrected Mortality at 48 Hrs. [3, 21]: 39.47%
% Mortality at 48 Hrs. ([4]; 48 hrs after application): 60.00%
Total No. of dead insect at 48 Hrs. ([4]; 48 hrs after application): 60.00
% Corrected Mortality at 48 Hrs. [4, 21]: 55.56%
Mean colony Diameter (mm) [5]: 54.00 mm
inhibition of growth at 1 mL or g/L ([5]; vs untreated control, read-out: % Inhibition of growth): 38.6%
mortality at 1 mL or g/L [6, 22]: 48.6%
mortality at 1 mL or g/L [6, 23]: 55%
% Mortality at 72 Hrs. ([7]; 72 hrs after application): 62.50%
% Corrected Mortality at 72 Hrs. [7, 24]: 60.53%
Total No. of dead insect at 48 Hrs. [8]: 5.50
mortality at 1 mL or g/L [9, 22]: 61.8%
mortality at 1 mL or g/L [9, 23]: 67.5%
Total No. of dead insect at 48 Hrs. ([10]; 10 insects/treatment, 4 replications, okra leaves): 4.50
% Corrected Mortality at 48 Hrs. ([10]; 48 hrs): 40.54%
% Mortality at 48 Hrs. ([10]; 48 hrs): 45.00%
Plant Height 5th Day ([11]; 5th day after application): 7.16 cm
Stem Girth 5th Day ([11]; 5th day after application): 1.50 mm
Plant Height 10th Day ([11]; 10th day after application): 7.86 cm
Stem Girth 10th Day ([11]; 10th day after application): 2.10 mm
Plant Height % Increase over pre on 10th Day ([11]; 10th day): 28.43%
Stem Girth % Increase over pre on 10th Day ([11]; 10th day): 55.56%
CCI 5th Day ([11]; 5th day after application): 14.23
CCI % Increase over pre on 10th Day ([11]; 10th day): 23.12%
Root Length (cm) 10th Day ([11]; 10th day): 4.13 cm
CCI 10th Day ([11]; 10th day after application): 15.23
Root Length % Increase over control ([11]; 10th day, vs water control): 24.05%
% Mortality at 48 Hrs. ([12]; 48 hrs after application): 57.50%
Total No. of dead insect at 48 Hrs. ([12]; 48 hrs after application): 57.50
% Corrected Mortality at 48 Hrs. [12, 21]: 52.78%
% Disease reduction over Control [13]: 48.76%
CCI 5th Day ([14]; 5th day after application): 12.70
Plant Height (cm) 5th Day ([14]; 5th day after application): 5.97 cm
CCI % Increase over pre on 10th Day ([14]; 10th day): 38.53%
Plant Height % Increase over pre on 10th Day ([14]; 10th day): 44.42%
Root Lenght (cm) 10th Day ([14]; 10th day): 3.11 cm
Stem Girth % Increase over pre on 10th Day ([14]; 10th day): 45.91%
CCI 10th Day ([14]; 10th day after application): 15.1
Plant Height (cm) 10th Day ([14]; 10th day after application): 6.21 cm
Root Lenght % Increase over control ([14]; 10th day, vs water control): 13.83%
% Mortality at 72 Hrs. ([15]; 72 hrs after application): 67.50%
% Corrected Mortality at 72 Hrs. [15, 24]: 67.50%
Total No. of dead insect at 72 Hrs. [16]: 6.50
Total No. of dead insect at 48 Hrs. ([17]; 10 insects/treatment, 4 replications, cotton leaves): 6.50
% Corrected Mortality at 48 Hrs. ([17]; 48 hrs): 60.00%
% Mortality at 48 Hrs. ([17]; 48 hrs): 65.00%
Total No. of dead insect at 48 Hrs. [18]: 67.50
mortality at 1 mL or g/L ([19]; read-out: % Corrected Mortality at 72 Hrs.): 63.2%
mortality at 1 mL or g/L ([19]; read-out: % Mortality at 72 Hrs.): 65%
